Assay results: ChEMBL document CHEMBL1141752, “Koniamborine, the first pyrano[3,2-b]indole alkaloid and other secondary metabolites from Boronella koniambiensis” (J Nat Prod, 2005)

system: L1210; experiment: Cytotoxicity against mouse L1210 cells; format: functional, cell-based

Row | Structure (SMILES) | IC50
1 | c1cc2c(cc1CC1COCC1Cc1ccc3c(c1)OCO3)OCO2 (stereo not drawn) | 72.1 µM
2 | COc1ccc2c3occc(=O)c3n(C)c2c1 [KONIAMBORINE] | 38.2 µM
3 | CC(C)=CCC/C(C)=C/COc1ccc2ccc(=O)oc2c1CC=C(C)C | 15.7 µM
